What was measured:
Assay type in all cases: functional
Escherichia coli [1] = assay: Antibacterial activity against clinical isolate Escherichia coli K12 J53-ST10 684/18 expressing blaNDM-1 co-expressing blaCMY-2 and blaOXA-10 assessed as meropenem MIC at 23.5 uM measured after 20 hrs by broth microdilution assay (reference value: 5.03 mg/L)
Escherichia coli [2] = assay: Antibacterial activity against clinical isolate Escherichia coli K12 J53-ST10 684/18 expressing blaNDM-1 co-expressing blaCMY-2 and blaOXA-10 assessed as meropenem MIC at 47 uM measured after 20 hrs by broth microdilution assay (reference value: 10.06 mg/L)
Escherichia coli [3] = assay: Antibacterial activity against clinical isolate Escherichia coli K12 J53-ST10 696/17 expressing blaNDM-1 co-expressing blaCMY-4 assessed as meropenem MIC at 23.5 uM measured after 20 hrs by broth microdilution assay (reference value: 5.03 mg/L)
Escherichia coli [4] = assay: Antibacterial activity against clinical isolate Escherichia coli K12 J53-ST10 696/17 expressing blaNDM-1 co-expressing blaCMY-4 assessed as meropenem MIC at 47 uM measured after 20 hrs by broth microdilution assay (reference value: 10.06 mg/L)
Escherichia coli [5] = assay: Antibacterial activity against clinical isolate Escherichia coli K12 J53-ST10 618/15 expressing blaNDM-1 assessed as meropenem MIC at 23.5 uM measured after 20 hrs by broth microdilution assay (reference value: 5.03 mg/L)
Escherichia coli [6] = assay: Antibacterial activity against clinical isolate Escherichia coli K12 J53-ST10 618/15 expressing blaNDM-1 assessed as meropenem MIC at 47 uM measured after 20 hrs by broth microdilution assay (reference value: 10.06 mg/L)
Escherichia coli [7] = assay: Antibacterial activity against clinical isolate Escherichia coli K12 J53-ST10 699/15 expressing blaNDM-1 assessed as meropenem MIC at 23.5 uM measured after 20 hrs by broth microdilution assay (reference value: 5.03 mg/L)
Escherichia coli [8] = assay: Antibacterial activity against clinical isolate Escherichia coli K12 J53-ST10 699/15 expressing blaNDM-1 assessed as meropenem MIC at 47 uM measured after 20 hrs by broth microdilution assay (reference value: 10.06 mg/L)
Acinetobacter baumannii [9] = assay: Antibacterial activity against clinical isolate Acinetobacter baumannii IC 19/09 expressing blaNDM-1 co-expressing blaOXA-64 assessed as meropenem MIC at 23.5 uM measured after 20 hrs by broth microdilution assay (reference value: 5.03 mg/L)
Acinetobacter baumannii [10] = assay: Antibacterial activity against clinical isolate Acinetobacter baumannii IC 19/09 expressing blaNDM-1 co-expressing blaOXA-64 assessed as meropenem MIC at 47 uM measured after 20 hrs by broth microdilution assay (reference value: 10.06 mg/L)
Escherichia coli [11] = assay: Antibacterial activity against clinical isolate Escherichia coli ST1012/10 expressing blaNDM-1 co-expressing blaTEM-1/blaCTX-M-15/blaOXA-1 and blaOXA-2 assessed as meropenem MIC at 23.5 uM measured after 20 hrs by broth microdilution assay (reference value: 5.03 mg/L)
Escherichia coli [12] = assay: Antibacterial activity against clinical isolate Escherichia coli ST1012/10 expressing blaNDM-1 co-expressing blaTEM-1/blaCTX-M-15/blaOXA-1 and blaOXA-2 assessed as meropenem MIC at 47 uM measured after 20 hrs by broth microdilution assay (reference value: 10.06 mg/L)
Klebsiella pneumoniae [13] = assay: Antibacterial activity against clinical isolate Klebsiella pneumoniae ST1493/10 expressing blaNDM-1 co-expressing blaCMY-2like/blaTEM-1/blaCTX-M-15/blaSHV-28/blaOXA-1 and blaOXA-9 assessed as meropenem MIC at 23.5 uM measured after 20 hrs by broth microdilution assay (reference value: 5.03 mg/L)
Klebsiella pneumoniae [14] = assay: Antibacterial activity against clinical isolate Klebsiella pneumoniae ST1493/10 expressing blaNDM-1 co-expressing blaCMY-2like/blaTEM-1/blaCTX-M-15/blaSHV-28/blaOXA-1 and blaOXA-9 assessed as meropenem MIC at 47 uM measured after 20 hrs by broth microdilution assay (reference value: 10.06 mg/L)
Klebsiella pneumoniae [15] = assay: Antibacterial activity against clinical isolate Klebsiella pneumoniae 50/11 expressing blaNDM-1 co-expressing blaTEM-1/blaSHV-28/blaTEM-1/blaCTX-M-15 and blaOXA-1 assessed as meropenem MIC at 23.5 uM measured after 20 hrs by broth microdilution assay (reference value: 5.03 mg/L)
Klebsiella pneumoniae [16] = assay: Antibacterial activity against clinical isolate Klebsiella pneumoniae 50/11 expressing blaNDM-1 co-expressing blaTEM-1/blaSHV-28/blaTEM-1/blaCTX-M-15 and blaOXA-1 assessed as meropenem MIC at 47 uM measured after 20 hrs by broth microdilution assay (reference value: 10.06 mg/L)
Klebsiella pneumoniae [17] = assay: Antibacterial activity against clinical isolate Klebsiella pneumoniae 50/20 expressing blaNDM-5 co-expressing blaTEM-1 and blaSHV-1 assessed as meropenem MIC at 23.5 uM measured after 20 hrs by broth microdilution assay (reference value: 5.03 mg/L)
Klebsiella pneumoniae [18] = assay: Antibacterial activity against clinical isolate Klebsiella pneumoniae 50/20 expressing blaNDM-5 co-expressing blaTEM-1 and blaSHV-1 assessed as meropenem MIC at 47 uM measured after 20 hrs by broth microdilution assay (reference value: 10.06 mg/L)
Escherichia coli [19] = assay: Antibacterial activity against clinical isolate Escherichia coli 371/12 expressing blaNDM-7 co-expressing blaCTX-M-15 and blaOXA-1 assessed as meropenem MIC at 23.5 uM measured after 20 hrs by broth microdilution assay (reference value: 5.03 mg/L)
Escherichia coli [20] = assay: Antibacterial activity against clinical isolate Escherichia coli 371/12 expressing blaNDM-7 co-expressing blaCTX-M-15 and blaOXA-1 assessed as meropenem MIC at 47 uM measured after 20 hrs by broth microdilution assay (reference value: 10.06 mg/L)
Klebsiella pneumoniae [21] = assay: Antibacterial activity against clinical isolate Klebsiella pneumoniae ST23213/19 expressing blaNDM-1 co-expressing blaOXA-48/blaSHV-11/blaCTX-M-15 and blaOXA-1 assessed as meropenem MIC at 23.5 uM measured after 20 hrs by broth microdilution assay (reference value: 5.03 mg/L)
Klebsiella pneumoniae [22] = assay: Antibacterial activity against clinical isolate Klebsiella pneumoniae ST23213/19 expressing blaNDM-1 co-expressing blaOXA-48/blaSHV-11/blaCTX-M-15 and blaOXA-1 assessed as meropenem MIC at 47 uM measured after 20 hrs by broth microdilution assay (reference value: 10.06 mg/L)
Klebsiella pneumoniae [23] = assay: Antibacterial activity against clinical isolate Klebsiella pneumoniae 62/07 expressing blaVIM-19 co-expressing blaSHV-1/blaCTX-M-14 and blaCMY-4 assessed as meropenem MIC at 23.5 uM measured after 20 hrs by broth microdilution assay (reference value: 5.03 mg/L)
Klebsiella pneumoniae [24] = assay: Antibacterial activity against clinical isolate Klebsiella pneumoniae 62/07 expressing blaVIM-19 co-expressing blaSHV-1/blaCTX-M-14 and blaCMY-4 assessed as meropenem MIC at 47 uM measured after 20 hrs by broth microdilution assay (reference value: 10.06 mg/L)

With `Oc1c(Cl)cc(Cl)c2cccnc12` [CHLOROXINE] the MIC (Escherichia coli [1]) was ≤ 0.125 µg/mL, the MIC (Escherichia coli [2]) was ≤ 0.125 µg/mL and the MIC (Escherichia coli [3]) was ≤ 0.125 µg/mL. For the same compound, the MIC (Escherichia coli [4]) was ≤ 0.125 µg/mL, the MIC (Escherichia coli [5]) was ≤ 0.125 µg/mL and the MIC (Escherichia coli [6]) was ≤ 0.125 µg/mL. For the same compound, the MIC (Escherichia coli [7]) was ≤ 0.125 µg/mL, the MIC (Escherichia coli [8]) was ≤ 0.125 µg/mL and the MIC (Acinetobacter baumannii [9]) was ≤ 0.125 µg/mL. The MIC (Acinetobacter baumannii [10]) was ≤ 0.125 µg/mL, the MIC (Escherichia coli [11]) was ≤ 0.125 µg/mL and the MIC (Escherichia coli [12]) was ≤ 0.125 µg/mL. The MIC (Klebsiella pneumoniae [13]) was 128 µg/mL, the MIC (Klebsiella pneumoniae [14]) was 16 µg/mL and the MIC (Klebsiella pneumoniae [15]) was 4 µg/mL. For the same compound, the MIC (Klebsiella pneumoniae [16]) was ≤ 0.125 µg/mL, the MIC (Klebsiella pneumoniae [17]) was 4 µg/mL and the MIC (Klebsiella pneumoniae [18]) was ≤ 0.125 µg/mL. For the same compound, the MIC (Escherichia coli [19]) was ≤ 0.125 µg/mL, the MIC (Escherichia coli [20]) was ≤ 0.125 µg/mL and the MIC (Klebsiella pneumoniae [21]) was 128 µg/mL. For the same compound, the MIC (Klebsiella pneumoniae [22]) was 16 µg/mL, the MIC (Klebsiella pneumoniae [23]) was 8 µg/mL and the MIC (Klebsiella pneumoniae [24]) was ≤ 0.125 µg/mL.

— ChEMBL document CHEMBL5365420, “Kinetics, Thermodynamics, and Structural Effects of Quinoline-2-Carboxylates, Zinc-Binding Inhibitors of New Delhi Metallo-β-lactamase-1 Re-sensitizing Multidrug-Resistant Bacteria for Carbapenems” (J Med Chem, 2023)
